In patent publication US20210284647A1, “N-(3-(IMIDAZO[1,2-B]PYRIDAZIN-3-YLETHYNYL)-4-METHYLPHENYL)-5-PHENYL-4,5-DIHYDRO-1H-PYRAZOLE-1-CARBOXAMIDE DERIVATIVE, AND PHARMACEUTICAL COMPOSITION CONTAINING SAME AS ACTIVE INGREDIENT FOR TREATING KINASE-RELATED DISEASES” (VORONOIBIO INC., priority 2018, published 2021):
pEC50, pIC50: −log10 of the molar value.

Experiments:
[1] = tested on: human Jurkat T cells deficient in FADD; test: Cell protection effect under apoptosis-inducing condition (TNF-α); format: cell-based; settings: 40 ng of TNF-α, 50 hours, CellTiter-Glo, read-out: I2.I Cell EC50
Description: The cell protection effect of the compounds according to the present invention under the condition of inducing apoptosis by TNF-α was confirmed by […]. An apoptosis inducing factor such as TNF-α was treated to induce apoptosis of human Jurkat T cells deficient in FADD, to which the example compound was treated, and the cell protection effect was confirmed through the following analysis. Jurkat T cells deficient in FADD were cultured using RPMI medium (Hyclone) containing 10% FBS. When performing the test, the cells were seeded in a 96-well plate containing a medium suitable for the cell line at the density of 10,000 cells/well, and cultured in a 37° C. 5% CO2 incubator for 24 hours. Then, each well was treated with 40 ng of TNF-α, and the compounds prepared in the above examples were each treated with a 3-fold concentration gradient with 1 μM as the highest concentration. As the solvent control, dimethyl sulfoxide (DMSO) was treated at the concentration of 0.05% (v/v), which was the same concentration as that used for the compound treatment. Then, the cells were cultured for 50 hours. To confirm the degree of viability of the cells, a mixture provided in CellTiter-Gloe Luminescent Cell Viability Assay Kit (Promega) was added to the culture medium of the cells, followed by further culture at 37° C. for 30 minutes. Then, luminescence fluorescence was measured. The degree of inhibition of apoptosis induction according to the treatment concentration of each compound was calculated based on the fluorescence of the solvent control cells not treated with the compound. At this time, the concentration of each compound inhibiting 50% was determined as EC50 (μM). EC50 of each compound was calculated using Prism (version 7.01, GraphPad) software.

human GST-RIPK1 = molecular target: T1, human GST-RIPK1 (Homo sapiens, UniProt Q13546); test: RIPK1 inhibitory activity (ADP-Glo kinase assay); format: biochemical; settings: human GST-RIPK1 10 ng, ATP 50 uM, 25° C. for 4 hours, read-out: Enzyme IC50
T1 construct: GST; purchased signalchem
T1 sequence (Q13546 1-375 limits assumed): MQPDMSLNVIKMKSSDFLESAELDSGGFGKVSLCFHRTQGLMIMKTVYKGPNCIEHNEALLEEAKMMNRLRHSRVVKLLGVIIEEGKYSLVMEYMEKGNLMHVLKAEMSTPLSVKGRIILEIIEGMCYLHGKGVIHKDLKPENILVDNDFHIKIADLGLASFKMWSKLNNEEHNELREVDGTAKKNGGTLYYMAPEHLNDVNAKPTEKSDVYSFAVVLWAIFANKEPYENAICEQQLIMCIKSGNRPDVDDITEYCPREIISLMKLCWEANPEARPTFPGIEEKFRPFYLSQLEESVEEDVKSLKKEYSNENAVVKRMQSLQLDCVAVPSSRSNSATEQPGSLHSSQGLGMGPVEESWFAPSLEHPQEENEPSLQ
Description: The following experiment was performed to evaluate the inhibitory activity of the example compounds according to the present invention against RIPK1 (receptor-interacting serine/threonine protein kinase 1).
The example compound was reacted with the purified human GST-RIPK1 (1375, signalchem) enzyme to evaluate the enzyme inhibitory activity in the following manner. The composition of the reaction buffer used herein was as follows: 40 mM Tris-Hcl pH 7.4, 20 mM MgCl2, 0.5 mg/ml, BSA and 0.5 uM DTT. All the test materials were reacted in the reaction buffer. After reacting human GST-RIPK1 (1375, 10 ng), purified ATP (50 uM) and a specific substrate solution at 25° C. for 4 hours, the enzyme activity was confirmed using an in vitro ADP-Glo™ kinase assay (promega). Luminoscence was measured by reacting the enzyme activity reaction solution, ADP-Glo reaction solution, and enzyme activity detection solution at the ratio of 2:2:1. The degree of enzyme activity inhibition according to the treatment concentration of each compound was calculated based on the fluorescence of the enzyme activity of the solvent control not treated with the compound. At this time, the concentration of each compound inhibiting 50% of the enzyme activity was determined as IC50 (nM). IC50 of each compound was determined with three data sets and calculated using Prism (version 7.01, GraphPad) software.

Structure (SMILES): Cc1ccc(NC(=O)N2N=CC[C@@H]2c2ccccc2)cc1C#Cc1cnc2cccnn12 [Example 3, (R)—N-(3-(imidazo[1,2-b]pyridazin-3-ylethynyl)-4-methylphenyl)-5-phenyl-4,5-dihydro-1H-pyrazole-1-carboxamide 2,2,2-trifluoroacetate]
- pEC50 [1]: 6.50
- pIC50 (human GST-RIPK1): 6.66

Structure (SMILES): O=C(Nc1cccc(C#Cc2cnc3cccnn23)c1)N1N=CCC1c1cc(F)cc(F)c1 (stereo not drawn) [Example 23, 5-(3,5-difluorophenyl)-N-(3-(imidazo[1,2-b]pyridazin-3-ylethynyl)phenyl)-4,5-dihydro-1H-pyrazole-1-carboxamide 2,2,2-trifluoroacetate]
- pEC50 [1]: 8.92
- pIC50 (human GST-RIPK1): 7.49

Structure (SMILES): O=C(c1cccc(C#Cc2cnc3cccnn23)c1)N1N=CCC1c1ccccc1 (stereo not drawn) [Example 53, (3-(imidazo[1,2-b]pyridazin-3-ylethynyl)phenyl)(5-phenyl-4,5-dihydro-1H-pyrazol-1-yl)methanone 2,2,2-trifluoroacetate]
- pEC50 [1]: 6.01
- pIC50 (human GST-RIPK1): 6.14

Structure (SMILES): O=C(Nc1ccc(F)c(C#Cc2cnc3cccnn23)c1)N1N=CCC1c1ccccc1 (stereo not drawn) [Example 44, N-(4-fluoro-3-(imidazo[1,2-b]pyridazin-3-ylethynyl)phenyl)-5-phenyl-4,5-dihydro-1H-pyrazole-1-carboxamide 2,2,2-trifluoroacetate]
- pEC50 [1]: 9.43
- pIC50 (human GST-RIPK1): 7.74

Structure (SMILES): O=C(Nc1cc(C#Cc2cnc3cccnn23)ccc1F)N1N=CCC1c1ccccc1 (stereo not drawn) [Example 47, N-(2-fluoro-5-(imidazo[1,2-b]pyridazin-3-ylethynyl)phenyl)-5-phenyl-4,5-dihydro-1H-pyrazole-1-carboxamide 2,2,2-trifluoroacetate]
- pEC50 [1]: < 6.00
- pIC50 (human GST-RIPK1): 7.30

Structure (SMILES): O=C(Nc1cc(C#Cc2cnc3cccnn23)ccn1)N1N=CCC1c1ccccc1 (stereo not drawn) [Example 52, N-(4-(imidazo[1,2-b]pyridazin-3-ylethynyl)pyridin-2-yl)-5-phenyl-4,5-dihydro-1H-pyrazole-1-carboxamide 2,2,2-trifluoroacetate]
- pEC50 [1]: < 6.00
- pIC50 (human GST-RIPK1): 6.11

Structure (SMILES): O=C(Nc1cccc(C#Cc2cnc3cccnn23)c1)N1N=CC[C@@H]1c1cccc(F)c1 [Example 30, (R)-5-(3-fluorophenyl)-N-(3-(imidazo[1,2-b]pyridazin-3-ylethynyl)phenyl)-4,5-dihydro-1H-pyrazole-1-carboxamide 2,2,2-trifluoroacetate]
- pEC50 [1]: 6.49
- pIC50 (human GST-RIPK1): 6.40

Structure (SMILES): COc1ccc(C2CC=NN2C(=O)Nc2cccc(C#Cc3cnc4cccnn34)c2)cc1 (stereo not drawn) [Example 27, N-(3-(imidazo[1,2-b]pyridazin-3-ylethynyl)phenyl)-5-(4-methoxyphenyl)-4,5-dihydro-1H-pyrazole-1-carboxamide 2,2,2-trifluoroacetate]
- pEC50 [1]: 7.26
- pIC50 (human GST-RIPK1): 8.63

Structure (SMILES): O=C(Nc1cccc(C#Cc2cnc3cccnn23)c1)N1N=CCC1c1ccccn1 (stereo not drawn) [Example 37, N-(3-(imidazo[1,2-b]pyridazin-3-ylethynyl)phenyl)-5-(pyridin-2-yl)-4,5-dihydro-1H-pyrazole-1-carboxamide 2,2,2-trifluoroacetate]
- pEC50 [1]: 8.74
- pIC50 (human GST-RIPK1): 8.91

Structure (SMILES): Cc1ccc(NC(=O)N2N=CCC2c2ccncc2)cc1C#Cc1cnc2cccnn12 (stereo not drawn) [Example 18, N-(3-(imidazo[1,2-b]pyridazin-3-ylethynyl)-4-methylphenyl)-5-(pyridin-4-yl)-4,5-dihydro-1H-pyrazole-1-carboxamide 2,2,2-trifluoroacetate]
- pEC50 [1]: 9.52
- pIC50 (human GST-RIPK1): 8.62

Structure (SMILES): Cc1ccc(NC(=O)N2N=CCC2c2ccc(C(F)(F)F)cc2)cc1C#Cc1cnc2cccnn12 (stereo not drawn) [Example 7, N-(3-(imidazo[1,2-b]pyridazin-3-ylethynyl)-4-methylphenyl)-5-(4-(trifluoromethyl)phenyl)-4,5-dihydro-1H-pyrazole-1-carboxamide 2,2,2-trifluoroacetate]
- pEC50 [1]: 8.72
- pIC50 (human GST-RIPK1): 6.87

Structure (SMILES): O=C(Nc1cccc(C#Cc2cnc3cccnn23)c1)N1N=CC[C@H]1c1cc(F)cc(F)c1 [Example 24, (S)-5-(3,5-difluorophenyl)-N-(3-(imidazo[1,2-b]pyridazin-3-ylethynyl)phenyl)-4,5-dihydro-1H-pyrazole-1-carboxamide 2,2,2-trifluoroacetate]
- pEC50 [1]: 9.36
- pIC50 (human GST-RIPK1): 8.56

Structure (SMILES): O=C(Nc1cccc(C#Cc2cnc3cccnn23)c1)N1N=CCC1c1cccc(Cl)c1 (stereo not drawn) [Example 34, 5-(3-chlorophenyl)-N-(3-(imidazo[1,2-b]pyridazin-3-ylethynyl)phenyl)-4,5-dihydro-1H-pyrazole-1-carboxamide 2,2,2-trifluoroacetate]
- pEC50 [1]: 7.37
- pIC50 (human GST-RIPK1): 7.72

Structure (SMILES): O=C(Nc1ccc(F)c(C#Cc2cnc3cccnn23)c1)N1N=CC[C@H]1c1ccccc1 [Example 45, (S)—N-(4-fluoro-3-(imidazo[1,2-b]pyridazin-3-ylethynyl)phenyl)-5-phenyl-4,5-dihydro-1H-pyrazole-1-carboxamide 2,2,2-trifluoroacetate]
- pEC50 [1]: 10.05
- pIC50 (human GST-RIPK1): 8.06

Structure (SMILES): Cc1ccc(NC(=O)N2N=CCC2c2ccccn2)cc1C#Cc1cnc2cccnn12 (stereo not drawn) [Example 17, N-(3-(imidazo[1,2-b]pyridazin-3-ylethynyl)-4-methylphenyl)-5-(pyridin-2-yl)-4,5-dihydro-1H-pyrazole-1-carboxamide 2,2,2-trifluoroacetate]
- pEC50 [1]: 9.70
- pIC50 (human GST-RIPK1): 8.74

Structure (SMILES): Cc1ccc(NC(=O)N2N=CCC2c2cc(F)cc(F)c2)cc1C#Cc1cnc2cccnn12 (stereo not drawn) [Example 4, 5-(3,5-difluorophenyl)-N-(3-(imidazo[1,2-b]pyridazin-3-ylethynyl)-4-methylphenyl)-4,5-dihydro-1H-pyrazole-1-carboxamide 2,2,2-trifluoroacetate]
- pEC50 [1]: 8.77
- pIC50 (human GST-RIPK1): 8.11

Structure (SMILES): Cn1cc(Nc2cccn3c(C#Cc4cccc(NC(=O)N5N=CCC5c5ccccc5)c4)cnc23)cn1 (stereo not drawn) [Example 67, N-(3-((8-((1-methyl-1H-pyrazol-4-yl)amino)imidazo[1,2-a]pyridin-3-yl)ethynyl)phenyl)-5-phenyl-4,5-dihydro-1H-pyrazole-1-carboxamide 2,2,2-trifluoroacetate]
- pEC50 [1]: 10.10
- pIC50 (human GST-RIPK1): 7.72

Structure (SMILES): O=C(Nc1cccc(C#Cc2cnc3cccnn23)c1)N1N=CC[C@@H]1c1cc(F)cc(F)c1 [Example 25, (R)-5-(3,5-difluorophenyl)-N-(3-(imidazo[1,2-b]pyridazin-3-ylethynyl)phenyl)-4,5-dihydro-1H-pyrazole-1-carboxamide 2,2,2-trifluoroacetate]
- pEC50 [1]: 6.44
- pIC50 (human GST-RIPK1): 6.06

Structure (SMILES): CC(=O)Nc1cccn2c(C#Cc3cccc(NC(=O)N4N=CCC4c4ccccc4)c3)cnc12 (stereo not drawn) [Example 60, N-(3-((8-acetamidoimidazo[1,2-a]pyridin-3-yl)ethynyl)phenyl)-5-phenyl-4,5-dihydro-1H-pyrazole-1-carboxamide]
- pEC50 [1]: 9.40
- pIC50 (human GST-RIPK1): 7.19

Structure (SMILES): Cc1ccc(NC(=O)N2N=CC[C@H]2c2cc(F)cc(F)c2)cc1C#Cc1cnc2cccnn12 [Example 5, (S)-5-(3,5-difluorophenyl)-N-(3-(imidazo[1,2-b]pyridazin-3-ylethynyl)-4-methylphenyl)-4,5-dihydro-1H-pyrazole-1-carboxamide 2,2,2-trifluoroacetate]
- pEC50 [1]: 9.40
- pIC50 (human GST-RIPK1): 8.34

Structure (SMILES): O=C(Nc1cccc(C#Cc2cnc3cccnn23)c1)N1N=CCC1c1ccccc1 (stereo not drawn) [Example 19, N-(3-(imidazo[1,2-b]pyridazin-3-ylethynyl)phenyl)-5-phenyl-4,5-dihydro-1H-pyrazole-1-carboxamide 2,2,2-trifluoroacetate]
- pEC50 [1]: 9.59
- pIC50 (human GST-RIPK1): 8.42
